Laboratory results reported in patent publication US20260138962A1, “SYNTHESIS OF DERIVATIVES OF SIPH[…] THERAPEUTIC USE THEREOF” (priority 2022, published 2026).
Values after ≈ are worked out from the molar mass of the structure shown. Values joined by “and” are separate entries in the source; they are usually repeats but may differ in a detail not shown here. Equal entries are not always repeated.

Tests used:
[1] = system: SARS-CoV-2 Wuhan isolate (wild type); assay: microbe, parasite or virus in culture; assay type: cell-based; settings: Severe acute respiratory syndrome coronavirus 2, Vero C1008
[2] = system: Influenza A-type virus (strain 108 617); assay: Cytopathic Effect Reduction Assay against Influenza A (CERA-1) in MDCK cells; assay type: cell-based; settings: for IC50: calculated with GraphPad Prism
[3] = system: MDCK cells; settings: all test concentrations, 50.0 to 3.75 μg/mL

CC1=C2C[C@@H]3[C@@H](C)C=CC(=O)[C@@]3(C)C[C@@]2(O)OC1=O [HLS, (4aR,5S,8aS,9aR)-9a-hydroxy-3,5,8a-trimethyl-4a,5,9,9a-tetrahydronaphtho[2,3-b]furan-2,8(4H,8aH)-dione]
IC50 ([1]; Wuhan strain, in vitro): 3.03 µg/mL (≈ 11.6 µM)
inhibition at 0.5 µg/mL ([1]; Wuhan, 0.5 μg/ml, Vero E6 cells): 25%
inhibition at 2 µg/mL ([1]; Wuhan, 2 μg/ml, Vero E6 cells): 50%
inhibition at 5 µg/mL ([1]; Wuhan, 5 μg/ml, Vero E6 cells): 75%
inhibition at 16 µg/mL ([1]; Wuhan, 16 μg/ml, Vero E6 cells): 100%
inhibition at 50 µg/mL ([1]; Wuhan, 50 μg/ml, Vero E6 cells): 100%
inhibition ([2]; 50.0 μg/mL): > 100% and > 123%
inhibition at 3.75 µg/mL ([2]; Influenza A virus, MDCK, 3.75 μg/mL): > 30%
IC50 ([2]; Influenza A virus): 9.2 µg/mL (≈ 35.1 µM)
toxicity [3]: no toxicity

NC(=O)c1ncn([C@@H]2O[C@H](CO)[C@@H](O)[C@H]2O)n1 [ribavirin, reference compound]
inhibition at 50 µg/mL ([2]; Influenza A virus, MDCK, 50.0 μg/mL): > 105%
IC50 ([2]; Influenza A virus): 2.16 µg/mL (≈ 8.84 µM)
